Experimental data as given in patent publication EP1619195A2, “Compounds isolated from gamboge resin having activity in inhibiting the growth of tumor/cancer cells and pharmaceutical compositions comprising the same” (priority 2004, dated 2006).
Values after ≈ are worked out from the molar mass of the structure shown.

Key:
HT-29 (colon cancer) = experiment: cells; conditions: for LC50: 50% cell destroying lethal concentration; for IC50: 50% cell growth inhibition concentration
Text: (§1) The cancer cell growth inhibition test was primarily used to detect the effect of a candidate drug on cancer cell proliferation. The working principle involved therein is the abilityof viable cells to shift alamarBlue (Biosource, USA) from its originally non-fluorescent oxidized state to a reduced form (fluorescent, red) having fluorescence via metabolic reaction. According to the fluorescent data result generated by the alamarBlue reagent thus obtained, the proliferation of the viable cells and cell activity can be quantified for detection.
(§2) In this experiment, the assay concentrations of the candidate drug were set to be 0.01, 0.1, 1, 10, and 100 µg/ml, and the following cell lines were used: 6 human cancer cells MCF-7 (breast cancer), HT-29 (colon cancer), HL-60 (leukemia), HepG2 (liver cancer), A549 (lung cancer), and U937 (lymphoma cancer), and a normal human umbilicalvenalepithelialcell (HUVEC).

HL-60 (leukemia) = experiment: cells; conditions: for LC50: HL-60, 50% cell destroying lethal concentration; for IC50: HL-60, HL-60, 50% cell growth inhibition concentration
Text: as §1, §2

MCF-7 (breast cancer) = experiment: cells; conditions: for LC50: 50% cell destroying lethal concentration; for IC50: 50% cell growth inhibition concentration
Text: as §1, §2

HepG2 (liver cancer) = experiment: cells; conditions: for LC50: 50% cell destroying lethal concentration; for IC50: 50% cell growth inhibition concentration
Text: as §1, §2

U937 (lymphoma cancer) = experiment: cells; conditions: for LC50: U937, 50% cell destroying lethal concentration
Text: as §1, §2

A549 (lung cancer) = experiment: cells; conditions: for LC50: A549, 50% cell destroying lethal concentration; for IC50: A549, A549, 50% cell growth inhibition concentration
Text: as §1, §2

HUVEC = experiment: in vitro; conditions: HUVEC (normal human cell); for LC50: 50% cell destroying lethal concentration; for IC50: Homo sapiens, HUVEC, 50% cell growth inhibition concentration
Text: as §1, §2

in vitro = conditions: human
Text: as §1, §2

[1] = Homo sapiens, U-937, U937, 50% cell growth inhibition concentration

| Structure (SMILES) | LC50 (HT-29 (colon cancer); HT-29) [µg/mL] | LC50 (HL-60 (leukemia)) [µg/mL] | IC50 (HL-60 (leukemia); Homo sapiens) [µg/mL] | LC50 (MCF-7 (breast cancer); MCF-7) [µg/mL] | LC50 (HepG2 (liver cancer); HepG2) [µg/mL] | IC50 (U937 (lymphoma cancer); Homo sapiens, U-937) [µg/mL] | LC50 (U937 (lymphoma cancer)) [µg/mL] | LC50 (A549 (lung cancer)) [µg/mL] | IC50 (A549 (lung cancer); Homo sapiens) [µg/mL] | LC50 (HUVEC) [µg/mL] | IC50 (HUVEC) [µg/mL] | IC50 (HT-29 (colon cancer); Homo sapiens, HT-29, HT-29) [µg/mL] | IC50 (MCF-7 (breast cancer); Homo sapiens, MCF7, MCF-7) [µg/mL] | IC50 (HepG2 (liver cancer); Homo sapiens, HepG2, HepG2) [µg/mL] | IC50 (U937 (lymphoma cancer); [1]) [µg/mL] | CC50 (in vitro) [µg/mL] | also measured |
| --- | --- | --- | --- | --- | --- | --- | --- | --- | --- | --- | --- | --- | --- | --- | --- | --- | --- |
| CC(C)=CCc1c2c(c(O)c3c1OC14C(=CC5CC1C(C)(C)OC4(CC=C(C)C(=O)O)C5=O)C3=O)C=CC(C)(C)O2 (centres unmarked) [TSB-2, isomorellic acid] | 12 (≈ 21.4 µM) | 43 (≈ 76.7 µM) | 2.3 (≈ 4.1 µM) | 24 (≈ 42.8 µM) | 33 (≈ 58.9 µM) | 1.6 (≈ 2.85 µM) | 6.1 (≈ 10.9 µM) | 4.6 (≈ 8.2 µM) | 1.3 (≈ 2.32 µM) | 22 (≈ 39.2 µM) | 1.7 (≈ 3.03 µM) | – | – | – | – | – | IC50 (HT-29 (colon cancer); HT-29): 6.9 µg/mL (≈ 12.3 µM); IC50 (MCF-7 (breast cancer); MCF-7): 9.0 µg/mL (≈ 16.1 µM); IC50 (HepG2 (liver cancer); HepG2): 6.4 µg/mL (≈ 11.4 µM) |
| CC(C)=CCCC1(C)C=Cc2c(O)c3c(c(CC=C(C)C)c2O1)OC12C(=CC4CC1C(C)(C)OC2(CC=C(C)C(=O)O)C4=O)C3=O (centres unmarked) [TSB-3, isogambogic acid] | 8.8 (≈ 14 µM) | 4.6 (≈ 7.32 µM) | 0.97 (≈ 1.54 µM) | 4.3 (≈ 6.84 µM) | 1.9 (≈ 3.02 µM) | 0.82 (≈ 1.3 µM) | 3.1 (≈ 4.93 µM) | 4.8 (≈ 7.63 µM) | 0.88 (≈ 1.4 µM) | 5.2 (≈ 8.27 µM) | 1.1 (≈ 1.75 µM) | 6.4 (≈ 10.2 µM) | 1.6 (≈ 2.54 µM) | 1.2 (≈ 1.91 µM) | – | – | – |
| CC(C)=CCc1c(O)cc(O)c2c(=O)c3cc4c(c(O)c3oc12)OC(C)(C)C=C4 [TSB-4, 7,9,12-trihydroxy-2,2-dimethyl-10-(3-methyl-but-2-enyl)-2H-pyrano[3,2-b]xanthen-6-one] | – | – | 7.7 (≈ 19.5 µM) | – | – | – | – | – | 1.8 (≈ 4.56 µM) | – | 11 (≈ 27.9 µM) | 8.4 (≈ 21.3 µM) | 10 (≈ 25.4 µM) | 8.9 (≈ 22.6 µM) | 6.9 (≈ 17.5 µM) | 21 (≈ 53.2 µM) | – |
| CC(C)=CCC[C@]1(C)C=Cc2c(O)c3c(c(CC=C(C)C)c2O1)O[C@]12C(=C[C@@H]4C[C@H]1C(C)(C)O[C@@]2(C/C=C(/C)C(=O)O)C4=O)C3=O [TSB-5, gambogic acid] | – | – | 0.5 (≈ 0.795 µM) | – | – | – | – | – | 0.8 (≈ 1.27 µM) | – | 0.87 (≈ 1.38 µM) | 4.5 (≈ 7.16 µM) | 0.83 (≈ 1.32 µM) | 0.83 (≈ 1.32 µM) | 0.65 (≈ 1.03 µM) | 3.6 (≈ 5.73 µM) | CC50 (HT-29 (colon cancer); Homo sapiens, HT-29, read-out: LC50): 7.1 µg/mL (≈ 11.3 µM); CC50 (HL-60 (leukemia); Homo sapiens, HL-60, read-out: LC50): 5.2 µg/mL (≈ 8.27 µM); CC50 (MCF-7 (breast cancer); Homo sapiens, MCF7, read-out: LC50): 2.7 µg/mL (≈ 4.29 µM); CC50 (HepG2 (liver cancer); Homo sapiens, HepG2, read-out: LC50): 2.7 µg/mL (≈ 4.29 µM); CC50 (U937 (lymphoma cancer); Homo sapiens, U-937, read-out: LC50): 3.1 µg/mL (≈ 4.93 µM); CC50 (A549 (lung cancer); Homo sapiens, A549, read-out: LC50): 2.9 µg/mL (≈ 4.61 µM) |
